Results published in patent US8927717B1, “Thiochromeno[2,3-c]quinolin-12-one derivatives, preparation method and application thereof” (National Defense Medical Center, priority 2014, dated 2015).

Columns and labels:
TK-10 = format: cell-based; conditions: TK-10
MDA-MB-435 = format: cell-based; conditions: MDA-MB-435
UACC-62 = format: cell-based; conditions: UACC-62
IGROV1 = format: cell-based; conditions: IGROV1
SK-MEL-28 = format: cell-based; conditions: SK-MEL-28
OVCAR-5 = format: cell-based; conditions: OVCAR-5
HCC-2998 = format: cell-based; conditions: HCC-2998
HOP-92 = format: cell-based; conditions: HOP-92, five dose
OVCAR-4 = format: cell-based; conditions: OVCAR-4
SF-268 = format: cell-based; conditions: SF-268
CAKI-1 = format: cell-based; conditions: CAKI-1
UACC-257 = format: cell-based; conditions: UACC-257
M14 = format: cell-based; conditions: M14
MALME-3M = format: cell-based; conditions: MALME-3M
TOP I (Topoisomerase I) [1] = target: T1, TOP I (Topoisomerase I) (Homo sapiens, UniProt P11387); experiment: TOP I mediated supercoiled DNA relaxation assay; format: biochemical; conditions: five different concentrations; TopoGEN TG2005H, TG-2000H-1
T1 construct: purchased TopoGEN TG2005H
T1 sequence (P11387 1-765): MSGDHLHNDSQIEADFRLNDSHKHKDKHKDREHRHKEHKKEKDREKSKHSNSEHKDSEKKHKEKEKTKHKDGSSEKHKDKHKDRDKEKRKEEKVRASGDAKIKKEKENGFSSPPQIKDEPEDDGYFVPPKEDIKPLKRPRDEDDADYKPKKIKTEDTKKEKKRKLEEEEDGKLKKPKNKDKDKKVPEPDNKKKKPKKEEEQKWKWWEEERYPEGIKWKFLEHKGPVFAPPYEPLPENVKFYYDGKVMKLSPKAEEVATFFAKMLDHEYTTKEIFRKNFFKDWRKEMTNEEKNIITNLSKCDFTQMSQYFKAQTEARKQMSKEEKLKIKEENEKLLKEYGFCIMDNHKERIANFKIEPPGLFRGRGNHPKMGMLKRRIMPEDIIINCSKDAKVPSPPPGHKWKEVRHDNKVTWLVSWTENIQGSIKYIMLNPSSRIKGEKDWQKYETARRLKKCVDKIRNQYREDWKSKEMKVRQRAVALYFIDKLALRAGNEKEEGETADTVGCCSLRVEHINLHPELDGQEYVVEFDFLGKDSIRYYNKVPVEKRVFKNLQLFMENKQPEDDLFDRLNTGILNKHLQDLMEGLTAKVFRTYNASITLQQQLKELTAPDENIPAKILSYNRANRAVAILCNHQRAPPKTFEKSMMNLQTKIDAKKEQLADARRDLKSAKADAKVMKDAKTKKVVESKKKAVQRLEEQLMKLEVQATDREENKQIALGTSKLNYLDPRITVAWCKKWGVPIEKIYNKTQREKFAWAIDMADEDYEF

A498 = format: cell-based; conditions: A498
SK-MEL-2 = format: cell-based; conditions: SK-Mel-2, five dose
NCI/ADR-RES = format: cell-based; conditions: NCI/ADR-RES
SNB-19 = format: cell-based; conditions: SNB-19
OVCAR-3 = format: cell-based; conditions: OVCAR-3; 10^−5 molar
SF-539 = format: cell-based; conditions: SF-539
TOP I (Topoisomerase I) [2] = target: T1, TOP I (Topoisomerase I); experiment: TOP I mediated supercoiled DNA relaxation assay; format: biochemical; conditions: primary assay at 25 and/or 50 μM
Method: According to the cell cytotoxicity, compounds 5, 7, 8, 16, 19, N2, N7, N8, N9, N14-N19, and N25 were also selected for primary TOP I and II activities assays at 25 and/or 50 μM (FIG. 2-4).

[3] = Homo sapiens, five dose, read-out: LC50 (the source's name)

O=c1c2cc(Cl)ccc2sc2c(NCc3ccccc3)nc3ccccc3c12 [Compound N25, 6-(Benzylamino)-10-chloro-12H-thiochromeno[2,3-c]quinolin-12-one]
GI50 (TK-10; Homo sapiens, five dose): 5.02 µM | CC50 (TK-10; [3]): > 100 µM | Growth percent (TK-10; 10^−5 molar): 75.80% | TGI (TK-10; five dose): 22.30 µM | GI50 (MDA-MB-435; Homo sapiens, five dose): > 100 µM | CC50 (MDA-MB-435; [3]): > 100 µM | Growth percent (MDA-MB-435; 10^−5 molar): 89.58% | TGI (MDA-MB-435; five dose): >100 µM | GI50 (UACC-62; Homo sapiens, five dose): 16.9 µM | CC50 (UACC-62; [3]): > 100 µM | Growth percent (UACC-62; 10^−5 molar): 89.20% | TGI (UACC-62; five dose): >100 µM | GI50 (IGROV1; Homo sapiens, IGROV-1, five dose): 4.64 µM | CC50 (IGROV1; Homo sapiens, IGROV-1, five dose, read-out: LC50 (the source's name)): > 100 µM | Growth percent (IGROV1; 10^−5 molar): 53.42% | TGI (IGROV1; five dose): >100 µM | LC50 (SK-MEL-28; Homo sapiens, five dose): > 100 µM | Growth percent (SK-MEL-28; 10^−5 molar): 84.20% | TGI (SK-MEL-28; five dose): >100 µM | GI50 (OVCAR-5; Homo sapiens, five dose): > 100 µM | CC50 (OVCAR-5; [3]): > 100 µM | Growth percent (OVCAR-5; 10^−5 molar): 91.27% | TGI (OVCAR-5; five dose): >100 µM | Growth percent (HCC-2998; 10^−5 molar): 95.77% | TGI (HCC-2998; five dose): >100 µM | GI50 (HCC-2998; Homo sapiens, five dose): > 100 µM | LC50 (HCC-2998; Homo sapiens, five dose): > 100 µM | TGI (HOP-92): 7.53 µM | GI50 (HOP-92; Homo sapiens): 1.75 µM | LC50 (HOP-92; Homo sapiens): 53.6 µM | GI50 (OVCAR-4; Homo sapiens, five dose): 15 µM | Growth percent (OVCAR-4; 10^−5 molar): 27.24% | TGI (OVCAR-4; five dose): 3.74 µM | GI50 (SF-268; Homo sapiens, five dose): 13.8 µM | CC50 (SF-268; [3]): > 100 µM | Growth percent (SF-268; 10^−5 molar): 73.68% | TGI (SF-268; five dose): >100 µM | Growth percent (CAKI-1; 10^−5 molar): 80.38% | TGI (CAKI-1; five dose): >100 µM | GI50 (CAKI-1; Homo sapiens, five dose): 6.07 µM | CC50 (CAKI-1; [3]): > 100 µM | GI50 (UACC-257; Homo sapiens, five dose): > 100 µM | CC50 (UACC-257; [3]): > 100 µM | Growth percent (UACC-257; 10^−5 molar): 83.24% | TGI (UACC-257; five dose): >100 µM | GI50 (M14; Homo sapiens, five dose): > 100 µM | LC50 (M14; Homo sapiens, five dose): > 100 µM | Growth percent (M14; 10^−5 molar): 87.29% | TGI (M14; five dose): >100 µM | GI50 (MALME-3M; Homo sapiens, five dose): > 100 µM | LC50 (MALME-3M; Homo sapiens, five dose): > 100 µM | Growth percent (MALME-3M; 10^−5 molar): 77.59% | TGI (MALME-3M; five dose): >100 µM | IC50 (TOP I (Topoisomerase I) [1]): ~25 µM | Growth percent (A498; 10^−5 molar): 86.46% | TGI (A498; five dose): 39.20 µM | GI50 (A498; Homo sapiens, five dose): 8.05 µM | CC50 (A498; [3]): > 100 µM | GI50 (SK-MEL-2; Homo sapiens): 10.6 µM | LC50 (SK-MEL-2; Homo sapiens): 96.5 µM | TGI (SK-MEL-2): 31.90 µM | GI50 (NCI/ADR-RES; Homo sapiens, five dose): 43 µM | CC50 (NCI/ADR-RES; [3]): > 100 µM | Growth percent (NCI/ADR-RES; 10^−5 molar): 77.36% | TGI (NCI/ADR-RES; five dose): >100 µM | GI50 (SNB-19; Homo sapiens, five dose): 8.56 µM | LC50 (concentration killing 50% of cells) (SNB-19; Homo sapiens, five dose): > 100 µM | Growth percent (SNB-19; 10^−5 molar): 102.93% | TGI (SNB-19; five dose): >100 µM | Growth percent (OVCAR-3): 76.59% | GI50 (SF-539; Homo sapiens, five dose): 4.49 µM | LC50 (SF-539; Homo sapiens, five dose): > 100 µM | Growth percent (SF-539; 10^−5 molar): 80.59% | TGI (SF-539; five dose): 46.40 µM | inhibitory effect in TOP I activity assay compared with CPT (TOP I (Topoisomerase I) [2]): more potent inhibitory effects than CPT
